# Data from patent US8697728B2, “Perhexiline for use in the treatment of hypertrophic cardiomyopathy (HCM)” (The University of Birmingham, priority 2009, dated 2014).
# Assays:
# symptomatic HCM patients [1] = test: Cardiopulmonary exercise test (peak oxygen consumption), randomized double-blind placebo-controlled study; assay type: in vivo, human; conditions: p=0.003 vs placebo
# Text: (§1) The study was approved by the South Birmingham Research Ethics Committee and the investigation conforms with the principles outlined in the Declaration of Helsinki. All study participants provided written informed consent. The study was a randomized, double blind, placebo-controlled parallel-group design of minimum 3 months duration. FIG. 1 represents a flow chart of the study. The pre-defined primary end point was peak oxygen consumption (peak VO2). Pre-defined secondary end points were symptomatic status, resting myocardial energetics (PCr/γ-ATP ratio) and diastolic function at rest and during exercise (nTTPF). 33 controls of similar age and gender distribution were recruited for comparison with baseline data of HCM patients. […]
# Following baseline studies, patients were randomized in a double-blind fashion to receive either perhexiline (n=25) or placebo (n=21) 100 mg OD. […] At the end of study, patients were re-evaluated as described earlier.
# Data were analyzed using SPSS ver. 15.0 for Window and Microsoft Office Excel 2007, and expressed as Mean±Standard Deviation (SD). Comparison of continuous variables between Perhexiline and Placebo baseline data were determined by unpaired Student's t-test (2-tail) if variables were normally distributed and the Mann-Whitney U-test if the data were non-normally distributed. […]
# symptomatic HCM patients [2] = test: Radionuclide ventriculography (diastolic ventricular filling, nTTPF); assay type: in vivo, human; conditions: perhexiline group, p=0.03 vs placebo response
# Text: as §1, with “(nTTPF).” for “(nTTPF). 33 controls of similar age and gender distribution were recruited for comparison with baseline data of HCM patients.”
# Diastolic filling were assessed by equilibrium R-wave gated blood pool scintigraphy using a standard technique at rest and during graded semi erect exercise on a cycle ergometer (Atherton J J, Moore T D, Lele S S et al. Diastolic ventricular interaction in chronic heart failure. Lancet 1997;349 (9067):1720-1724; Lele S S, Macfarlane D, Morrison S, Thomson H, Khafagi F, Frenneaux M. Determinants of exercise capacity in patients with coronary artery disease and mild to moderate systolic dysfunction. Role of heart rate and diastolic filling abnormalities. Eur Heart J 1996;17(2):204-212). […]
# Data were analyzed using SPSS ver. 15.0 for Window and Microsoft Office Excel 2007, and expressed as Mean±Standard Deviation (SD). […]
# symptomatic HCM patients [3] = test: Side effects and deaths during the study; assay type: in vivo; conditions: perhexiline group (n=25), during the first week of treatment
# Text: The study was a randomized, double blind, placebo-controlled parallel-group design of minimum 3 months duration. […] The pre-defined primary end point was peak oxygen consumption (peak VO2). Pre-defined secondary end points were symptomatic status, resting myocardial energetics (PCr/γ-ATP ratio) and diastolic function at rest and during exercise (nTTPF).
# Diabetic patients were also excluded to maintain the blindness of the study as Perhexiline may lead to a reduction in plasma glucose in such patients necessitating a reduction in anti-diabetic therapy. 46 consecutive consenting patients who met these entry criteria were recruited into the study.
# Following baseline studies, patients were randomized in a double-blind fashion to receive either perhexiline (n=25) or placebo (n=21) 100 mg OD. Serum perhexiline levels were obtained at 1 and 4 weeks after initiation of the drug. Dose adjustments were advised by an unblinded physician according to serum level to achieve therapeutic level and to avoid drug toxicity. Identical dosage adjustments were also made for randomly allocated placebo-treated patients by the unblinded observer to ensure that blinding of the investigators was maintained. At the end of study, patients were re-evaluated as described earlier.
compound,measurement,setting,value
"C1CCC(C(CC2CCCCN2)C2CCCCC2)CC1 (centres unmarked) [perhexiline, 2-(2,2-dicyclohexylethyl) piperidine]","Effect on peak oxygen consumption (peak VO2, exercise capacity), in words",symptomatic HCM patients [1]; FIG. 3A legend,increases
same,Change in Peak VO2 after treatment (increase),"symptomatic HCM patients [1]; HCM patients, perhexiline group, after treatment vs baseline",2.09 mL/min/kg
same,εnTTPF (change of nTTPF from rest to exercise) on therapy,symptomatic HCM patients [2],0.00 ± 0.003 s
same,Side effect: dizziness (number of patients),symptomatic HCM patients [3],2
same,Side effect: transient nausea (number of patients),symptomatic HCM patients [3],3
